Laboratory results taken from PubChem BioAssay (NCI).
Several values for one entry are separate records, joined by “and”; a condition that tells them apart may be missing. Identical values can stand only once.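 48-hour exposure; five concentrations; linearly interpolated endpoints. Abbreviation: GI50, concentration required for 50% inhibition of growth. TGI denotes the concentration required for complete inhibition of growth.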

Key:
Assay in all cases: NCI-60 cell line screen, 48 h
HCC-2998 colon = test system: HCC-2998 colon
SK-MEL-28 melanoma = test system: SK-MEL-28 melanoma
HCT-116 colon = test system: HCT-116 colon
CAKI-1 renal = test system: CAKI-1 renal
MALME-3M melanoma = test system: MALME-3M melanoma
UACC-62 melanoma = test system: UACC-62 melanoma
CCRF-CEM leukemia = test system: CCRF-CEM leukemia
OVCAR-3 ovarian = test system: OVCAR-3 ovarian

Nc1nc2c(nnn2C2CC(O)C(CO)O2)c(=O)[nH]1 (stereo not given)
GI50 (HCC-2998 colon): 3.63 µM | TGI (HCC-2998 colon): > 92 µM | GI50 (SK-MEL-28 melanoma): 20.4 µM | TGI (SK-MEL-28 melanoma): > 100 µM | GI50 (HCT-116 colon): 5.89 µM | TGI (HCT-116 colon): > 100 µM | GI50 (CAKI-1 renal): 2.3 µM | TGI (CAKI-1 renal): > 100 µM | GI50 (MALME-3M melanoma): 5.53 µM | TGI (MALME-3M melanoma): > 100 µM | GI50 (UACC-62 melanoma): 3.48 µM | TGI (UACC-62 melanoma): 36.2 µM | GI50 (CCRF-CEM leukemia): 2.39 µM | TGI (CCRF-CEM leukemia): > 100 µM | GI50 (OVCAR-3 ovarian): 4.78 µM | TGI (OVCAR-3 ovarian): > 69 µM

COC(=O)Nc1nc2ccc(Oc3ccc(NC(=O)Nc4cc(C(F)(F)F)ccc4F)cc3)cc2s1
GI50 (HCC-2998 colon): > 25 µM | TGI (HCC-2998 colon): > 25 µM | GI50 (SK-MEL-28 melanoma): 13.9 µM | TGI (SK-MEL-28 melanoma): > 25 µM | GI50 (HCT-116 colon): 8.8 µM | TGI (HCT-116 colon): > 25 µM | GI50 (CAKI-1 renal): > 25 µM | TGI (CAKI-1 renal): > 25 µM | GI50 (MALME-3M melanoma): 0.343 µM | TGI (MALME-3M melanoma): > 25 µM | GI50 (UACC-62 melanoma): 3.9 µM | TGI (UACC-62 melanoma): > 25 µM | GI50 (CCRF-CEM leukemia): > 23.7 µM | TGI (CCRF-CEM leukemia): > 25 µM | GI50 (OVCAR-3 ovarian): > 23.9 µM | TGI (OVCAR-3 ovarian): > 25 µM

CC1(C)OC2=C(CC1Br)C(=O)C(=O)c1ccccc12 (stereo not given)
GI50 (HCC-2998 colon): 1.69 µM | TGI (HCC-2998 colon): 3.12 µM | GI50 (SK-MEL-28 melanoma): 1.82 µM | TGI (SK-MEL-28 melanoma): 3.24 µM | GI50 (HCT-116 colon): 1.7 µM | TGI (HCT-116 colon): 3.41 µM | GI50 (CAKI-1 renal): 1.66 µM | TGI (CAKI-1 renal): 3.15 µM | GI50 (MALME-3M melanoma): 1.8 µM | TGI (MALME-3M melanoma): 3.52 µM | GI50 (UACC-62 melanoma): 2.08 µM | TGI (UACC-62 melanoma): 3.98 µM | GI50 (CCRF-CEM leukemia): 3.56 µM | TGI (CCRF-CEM leukemia): > 100 µM | GI50 (OVCAR-3 ovarian): 1.6 µM | TGI (OVCAR-3 ovarian): 2.98 µM

CS(=O)(=O)CCNCc1ccc(-c2ccc3ncnc(Nc4ccc(OCc5ccccc5)cc4)c3c2)o1
GI50 (HCC-2998 colon): 5.26 µM | TGI (HCC-2998 colon): 12.1 µM | GI50 (SK-MEL-28 melanoma): 4.04 µM | TGI (SK-MEL-28 melanoma): 7.83 µM | GI50 (HCT-116 colon): 5.99 µM | TGI (HCT-116 colon): > 17 µM | GI50 (CAKI-1 renal): 2.04 µM | TGI (CAKI-1 renal): > 25 µM | GI50 (MALME-3M melanoma): 4.99 µM | TGI (MALME-3M melanoma): 11.1 µM | GI50 (UACC-62 melanoma): 4.68 µM | TGI (UACC-62 melanoma): 8.98 µM | GI50 (CCRF-CEM leukemia): 0.631 µM | TGI (CCRF-CEM leukemia): > 15.6 µM | GI50 (OVCAR-3 ovarian): 8.47 µM | TGI (OVCAR-3 ovarian): > 25 µM

O=C1C(Cl)=C(NCCN2CCOCC2)C(=O)c2ncccc21
GI50 (HCC-2998 colon): 1.73 µM | TGI (HCC-2998 colon): 2.85 µM and 3.47 µM | TGI (SK-MEL-28 melanoma): 3.29 µM | TGI (HCT-116 colon): 3.51 µM and 3.58 µM | GI50 (CAKI-1 renal): 1.92 µM | TGI (CAKI-1 renal): 3.72 µM | GI50 (MALME-3M melanoma): 1.13 µM | TGI (MALME-3M melanoma): 3.07 µM and 2.63 µM | GI50 (UACC-62 melanoma): 1.15 µM | TGI (UACC-62 melanoma): 3.52 µM and 2.61 µM | GI50 (CCRF-CEM leukemia): 2.34 µM | TGI (CCRF-CEM leukemia): 2.68 µM and 5.29 µM | TGI (OVCAR-3 ovarian): 3.69 µM and 3.01 µM

Cc1ccc(NC(=O)CC(=O)n2nc(C)c(N=Nc3ccccc3C(=O)O)c2C)cc1
TGI (HCC-2998 colon): > 100 µM | TGI (SK-MEL-28 melanoma): > 100 µM | TGI (HCT-116 colon): > 100 µM | TGI (CAKI-1 renal): > 100 µM | TGI (MALME-3M melanoma): > 100 µM | TGI (UACC-62 melanoma): > 100 µM | TGI (CCRF-CEM leukemia): > 100 µM | TGI (OVCAR-3 ovarian): > 100 µM

Cc1ccc(-c2nc3nc(-c4ccccc4)nc(N4CCCNCC4)c3o2)cc1
GI50 (HCC-2998 colon): 2.04 µM | TGI (HCC-2998 colon): 4.17 µM | GI50 (SK-MEL-28 melanoma): 1.84 µM | TGI (SK-MEL-28 melanoma): 3.28 µM | GI50 (HCT-116 colon): 1.31 µM | TGI (HCT-116 colon): 2.65 µM | GI50 (CAKI-1 renal): 1.73 µM | TGI (CAKI-1 renal): 3.22 µM | GI50 (MALME-3M melanoma): 1.85 µM | TGI (MALME-3M melanoma): 3.38 µM | GI50 (UACC-62 melanoma): 1.68 µM | TGI (UACC-62 melanoma): 3.14 µM | GI50 (CCRF-CEM leukemia): 1.89 µM | TGI (CCRF-CEM leukemia): 4.23 µM | GI50 (OVCAR-3 ovarian): 1.84 µM | TGI (OVCAR-3 ovarian): 3.32 µM

C[N+]1=C(/C=C/c2ccc(O)c3ncccc23)C(C)(C)c2ccccc21
GI50 (HCC-2998 colon): 2.44 µM | TGI (HCC-2998 colon): 6.73 µM | GI50 (SK-MEL-28 melanoma): 4.35 µM | TGI (SK-MEL-28 melanoma): 16.4 µM | GI50 (HCT-116 colon): 2.86 µM | TGI (HCT-116 colon): 10.5 µM | GI50 (CAKI-1 renal): 1.11 µM | TGI (CAKI-1 renal): 3.83 µM | GI50 (MALME-3M melanoma): 2.01 µM | TGI (MALME-3M melanoma): 5.43 µM | GI50 (UACC-62 melanoma): 2.47 µM | TGI (UACC-62 melanoma): 8.54 µM | GI50 (CCRF-CEM leukemia): 3.1 µM | TGI (CCRF-CEM leukemia): 26 µM | GI50 (OVCAR-3 ovarian): 2.1 µM | TGI (OVCAR-3 ovarian): 5.46 µM

CCOC(=O)/C(=C\c1ccccc1)C(=O)O
TGI (HCC-2998 colon): > 100 µM | TGI (SK-MEL-28 melanoma): > 100 µM | TGI (HCT-116 colon): > 100 µM | TGI (CAKI-1 renal): > 100 µM | TGI (MALME-3M melanoma): > 100 µM | TGI (UACC-62 melanoma): > 100 µM | TGI (CCRF-CEM leukemia): > 100 µM | TGI (OVCAR-3 ovarian): > 100 µM
